Data: patent US20200164023A1, “METHODS FOR PREVENTING AND TREATING INTRA-ABDOMINAL CANDIDIASIS” (Cidara Therapeutics, Inc., priority 2017, published 2020)
Values after ≈ are worked out from the molar mass of the structure shown. Numbered stars: 1 amine (or outer) side, 2 acyl side, 3 side chain; on linkers, the order of the positions; unused ones are H or OH. Bridge positions count the residues as written; N and C are the ends. Square brackets hold non-standard residues; d marks the D form. Peptide text beside a SMILES is read from it. * marks the point of attachment. hTyr(3S-OH,4S-OH,3'-OSO3H) = N[C@H](C(=O)O)[C@H](O)[C@@H](O)c1ccc(O)c(OS(=O)(=O)O)c1; pTerphenylCO(4''-OnC5H11) = CCCCCOc1ccc(-c2ccc(-c3ccc(C(=O)*)cc3)cc2)cc1; Orn(4R-OH,5R-OH) = O=C([C@H](C[C@@H](O)[C@@H](O)N[*:3])N[*:1])[*:2]; hTyr(3S-OH,4S-OH) = N[C@H](C(=O)O)[C@H](O)[C@@H](O)c1ccc(O)cc1; Pro(3S-OH,4S-Me) = C[C@H]1CN[C@H](C(=O)O)[C@H]1O; X1 = CCCCCOc1ccc(-c2cc(-c3ccc(C(=O)*)cc3)no2)cc1; Gln(3R-OH) = NC(=O)C[C@@H](O)[C@H](N)C(=O)O; Hyp = O=C(O)[C@@H]1C[C@@H](O)CN1

Key:
C. glabrata isolates = assay: Susceptibility profiles of C. glabrata clinical isolates; format: cell-based
Source text: 168 C. glabrata isolates are collected from blood or other sterile sites in our repository. 11 clinical isolates are selected that display various susceptibility profiles against anidulafungin, caspofungin, and micafungin, and/or harbor mutant or wild-type FKS genes (Table 1). Additionally, 29 isolates are picked that are susceptible to all three echinocandins and harbor wild-type FKS genes. These 40 clinical isolates undergo CD101 susceptibility testing according to the CLSI broth microdilution reference methods. Stock solutions are prepared in DMSO. […] MICs are determined visually after 24-h of incubation. C. krusei ATCC 6258 and C. parapsilosis ATCC 22019 are included for quality controls.

[1] = MALDI-MSI drug distribution in infected liver, mouse model of intra-abdominal candidiasis; format: in vivo; conditions: single dose 5 mg/kg
Description: (§1) A mouse model of IAC was used for this study. Female six to eight week old CD1 mice (Charles River Laboratories) weighing 18-22 g were infected intraperitoneally (IP) with 1×10^7 CFU of C. albicans SC5314 mixed with sterile stool matrix as previously described. […] Mice were sacrificed just before antifungal treatment (n=1), and at 1, 3, 6, 24, and 48 hours post-dose (three mice per group per time point). Livers and kidneys were explored for abscesses >1 mm in diameter, dissected, placed on a cryohistology tray, and snap-frozen in liquid nitrogen and stored at −80° C. for tissue sectioning for MALDI imaging.
(§2) In a further experiment, a low dose of CD101 at 5 mg/kg was administered and micafungin was given at the same dose. Liver and kidney samples were collected at 6 hours and 24 hours post-dose for both MALDI imaging and absolute drug quantification.
(§3) In another separate experiment that aimed at comparing therapeutic level of single dose CD101 and multiple doses of micafungin, a single dose of CD101 at 20 mg/kg was given at day three post-inoculation, and once daily treatment of micafungin at 5 mg/kg starting from day three post-inoculation and a total of three doses of micafungin was administered. Livers and kidneys were collected at 48 hours and 72 hours post first dose of each drug.
Tissues were sectioned at 12 μm thickness using a Leica CM1850 cryostat (Buffalo Grove, Ill.) and mounted onto stainless steel slides (for MALDI-MSI analysis) or frosted glass microscope slides (for H&E staining). Tissue sections were stored at −80° C. until analysis. Prior to MALDI-MSI analysis, tissue sections were thawed and applied with ionization matrix. For CD101, 2,5-dihydroxybenzoic acid (DHB) (20 mg/ml in 50% methanol) containing 267 fmol/μl CD101-D9 (Cidara Therapeutics, Inc) was applied to the surface using a HTX TM sprayer (Chapel Hill, N.C.) operating with 50 μL/min flow rate, 60° C. nozzle temperature and 5 p.s.i. Twenty-five passes over the tissue were performed. For micafungin, 1,5-diaminonaphthalene (1,5-DAN) matrix (5 mg/ml in 50% acetone) containing 5 nmol/μl ^13C6-micafungin (Alsachim, France) was coated onto tissue surface by the TM-sprayer at flow rate of 60 μl/min, 50° C. nozzle temperature and 5 p.s.i. […]
MALDI-MSI analysis was performed using a MALDI LTQ Orbitrap XL mass spectrometer (Thermo Fisher Scientific, Bremen, Germany) with a resolution of 60,000 at m/z 400, full width at half maximum. […] Standards of CD101 and micafungin were analyzed both direct from the stainless steel target plate and spiked into drug-naïve liver tissue to optimize instrument parameters. Limit of detection (LOD) for MALDI-MSI analysis of micafungin and CD101 was 500 ng/g and 1 μg/g of liver or kidney tissue respectively, calculated as described. […]

[2] = Laser-capture microdissection and LC/MS-MS drug quantification in liver lesions and surrounding tissue, mouse IAC model; format: in vivo; conditions: for concentration at 24 h / concentration at 6 h: female, CD1, mouse, in vivo, 5 mg/kg; for concentration at 6 h: 6 hours post-dose
Description: as §1, §2, §3
Laser-capture microdissection. Necrotic lesion and surrounding tissue areas totaling two to […] were dissected from between three and six serial liver or kidney biopsy tissue sections using a Leica LMD6500 system (Buffalo Grove, Ill.). Lesion areas were identified optically from the brightfield image scan and by comparison to the adjacently-sectioned H&E reference tissue. Pooled dissected lesion tissues were collected into 0.25 ml standard PCR tubes and immediately transferred to the −80° C. freezer for storage.
Prior to analysis, the tubes were thawed at room temperature for 30 minutes. 50 μl of extraction solution (ACN/MeOH (1/1) with 100 ng/ml CD101-D9 and 100 ng/ml ^13C6-micafungin) was added to each tube, which were then sonicated for five min and centrifuged at 10000 RPM for five min at room temperature. 40 μl of supernatant was transferred for LC/MS-MS analysis and diluted with an additional 40 μl of MilliQ water.
Neat 1 mg/ml DMSO stocks for all compounds were serial diluted in 50/50 acetonitrile water to create standard curves and quality control spiking solutions. 3 μl of neat spiking solutions were added to 2 μl of lesion homogenate and extraction was performed by adding 50 μl of extraction solution (ACN/MeOH (1/1) with 100 ng/ml CD101-D9 and 100 ng/ml ^13C6-micafungin). Extracts were vortexed for five minutes and centrifuged at 10000 RPM for five min. A 40 μl of supernatant was transferred for LC/MS-MS analysis and diluted with an additional 40 μl of MilliQ water. Previously optimized LC/MS-MS parameters were used for analysis (see LC/MS-MS section).
LC-MS analysis was performed on a Q Exactive high resolution mass spectrometer (Thermo Fisher Scientific, Waltham, Mass.) coupled to a Thermo Scientific Dionex UltiMate 3000 binary system. Chromatography was performed with a Kinetex C18 column (2.1×50 mm; particle size 1.7 μm, Phenomenex, Torrance, Calif.) using a reverse phase gradient elution, ACN:H2O (60:40) and 10 mM ammonium acetate for mobile phase A and IPA:ACN:MeOH (80:10:10) and 10 mM ammonium acetate for mobile phase B. A flow rate of 300 μl/min was used, with a gradient consisting of 20% B held for 0.5 min, followed by linear increase to 95% in 3.5 min, held for 2.2 min and return to the initial 20% B in 0.3 min. The column was equilibrated for 1.5 min before the next injection, and the temperature of column and sample tray were held at 50 and 4° C., respectively. The column retention time for CD101 and micafungin was 3.32 min and 3.2 min respectively.
Key MS parameters were as follow: the spray voltage, 3.5 kV; capillary temperature, 320° C.; HESI probe temperature, 400° C.; S-lens RF level, 50. […]

[3] = Serum drug levels after single dose in mice; format: in vivo; conditions: mouse, single dose 5 mg/kg, read-out: serum drug level
C. albicans = assay: Minimum inhibitory concentration (MIC), IAC study strain; format: cell-based; conditions: Candida albicans
Description: As used herein, the term “minimum inhibitory concentration” or “MIC” refers to the concentration of an antifungal agent at which 50% to 100% growth inhibition of a fungus is achieved relative to a positive growth control. The method of establishing MIC will vary depending on the specific compound tested. For example, for echinocandins (e.g., CD101), MIC endpoints are determined after 24 hours incubation and correspond with the lowest drug concentration to produce a prominent decrease in turbidity (e.g., an approximately 50% reduction in growth relative to the drug-free growth control). For additional methods of determining the MIC of antifungal agents, see CLSI—Reference method for broth dilution antifungal susceptibility testing of yeasts; Approved-standard—Third Edition. CLSI document M27-A3. Wayne, Pa.: Clinical and Laboratory Standards Institute, 2008.

C. glabrata BG2 = assay: MIC against C. glabrata BG2; format: cell-based; conditions: Nakaseomyces glabratus; C. glabrata BG2, wild-type FKS genes
[4] = system: wildtype strains of C. albicans; conditions: cited from earlier work
[5] = system: wildtype strains of C. glabrata; conditions: cited from earlier work

Compound	susceptibility profile, value (C. glabrata isolates; Isolate 1, FKS R653I)	susceptibility profile, value (C. glabrata isolates; Isolate 2, FKS Wild-type)	susceptibility profile, value (C. glabrata isolates; Isolate 3, FKS F659L)	susceptibility profile, value (C. glabrata isolates; Isolate 4, FKS F659S)	susceptibility profile, value (C. glabrata isolates; Isolate 5, FKS R636S)	susceptibility profile, value (C. glabrata isolates; Isolate 6, FKS F659del)	susceptibility profile, value (C. glabrata isolates; Isolate 7, FKS S663P)	susceptibility profile, value (C. glabrata isolates; Isolate 8, FKS S663P)	susceptibility profile, value (C. glabrata isolates; Isolate 9, FKS D632Y)	susceptibility profile, value (C. glabrata isolates; Isolate 10, FKS D632Y)	susceptibility profile, value (C. glabrata isolates; Isolate 11, FKS F659del)	further results
CCCCCOc1ccc(-c2ccc(-c3ccc(C(=O)N[C@H]4C[C@@H](O)[C@@H](O)NC(=O)[C@@H]5[C@@H](O)[C@@H](C)CN5C(=O)[C@H]([C@@H](C)O)NC(=O)[C@H]([C@H](O)[C@@H](O)c5ccc(O)cc5)NC(=O)[C@@H]5C[C@@H](O)CN5C(=O)[C@H]([C@@H](C)O)NC4=O)cc3)cc2)cc1 [Anidulafungin, anidulafungin] ({pTerphenylCO(4''-OnC5H11)}-[Orn(4R-OH,5R-OH)]T[Hyp][hTyr(3S-OH,4S-OH)]T[Pro(3S-OH,4S-Me)]; lactam 1-C)	0.015	0.015	0.06	0.5	0.5	2	2	0.5	0.5	1	2	
CCCCCOc1ccc(-c2cc(-c3ccc(C(=O)N[C@H]4C[C@@H](O)[C@@H](O)NC(=O)[C@@H]5[C@@H](O)[C@@H](C)CN5C(=O)[C@H]([C@H](O)CC(N)=O)NC(=O)[C@H]([C@H](O)[C@@H](O)c5ccc(O)c(OS(=O)(=O)O)c5)NC(=O)[C@@H]5C[C@@H](O)CN5C(=O)[C@H]([C@@H](C)O)NC4=O)cc3)no2)cc1 [micafungin] (X1-[Orn(4R-OH,5R-OH)]T[Hyp][hTyr(3S-OH,4S-OH,3'-OSO3H)][Gln(3R-OH)][Pro(3S-OH,4S-Me)]; lactam 1-C)	0.015	0.03	0.06	0.06	0.12	4	8	0.5	0.25	0.25	4	time of peak drug intensity in liver tissues (MALDI-MSI) [1]: 1 h; drug signal in liver at 48 hours (MALDI-MSI) ([1]; no further dosing): no drug signals were detected; drug exposure within necrotic center of lesion (MALDI-MSI) ([1]; 24 hours): no detectable drug exposure; time at which drug signal first detectable in lesions (at lesion edge, MALDI-MSI) ([1]; liver): 6 h; drug level in liver lesions ([2]; 5 mg/kg once daily, 24 hours post third dose (steady-state)): under 5 μg/ml; concentration at 24 h ([2]; 5 mg/kg once daily, 24 hours post second dose, read-out: drug level in liver lesions): 3500 ng/mL; concentration at 24 h ([2]; 5 mg/kg once daily, 24 hours post third dose (steady-state), read-out: drug level in liver lesions): 4900 ng/mL; concentration at 24 h ([2]; 5 mg/kg once daily, steady-state after three doses, read-out: drug level in surrounding non-lesion liver tissues): 500 ng/mL; concentration at 6 h ([2]; ip, single IP dose 5 mg/kg, read-out: drug concentration in liver lesions): 4900 ng/mL; concentration at 6 h ([2]; ip, single IP dose 5 mg/kg, read-out: drug concentration in uninvolved surrounding liver tissue): 6500 ng/mL; concentration at 24 h ([2]; ip, single IP dose 5 mg/kg, 24 hours post-dose, read-out: drug concentration in liver lesions): 3400 ng/mL; concentration at 24 h ([2]; ip, single IP dose 5 mg/kg, 24 hours post-dose, read-out: drug concentration in uninvolved surrounding liver tissue): 1000 ng/mL; concentration at 6 h ([3]; 6 hours): 7000 to 10000 ng/mL; concentration at 24 h ([3]; 24 hours): ~2000 ng/mL; MIC (C. albicans): 0.03 µg/mL (≈ 0.0236 µM); MIC (C. glabrata BG2): 0.06 µg/mL (≈ 0.0472 µM); mutant prevention concentration (MPC) [4]: 16 µg/mL; mutant prevention concentration (MPC) [5]: 16 µg/mL
